Calls of active or inactive are those of the source. The rule behind the calls is not given here.
What was measured:
[1] = system: Mus musculus; test: Anticonvulsant activity against ip dosed CF1 albino mouse seizure model after 4 hrs by 6 Hz psychomotor seizure test; format: functional
[2] = system: Mus musculus; test: Anticonvulsant activity against CF1 albino mouse seizure model assessed as time to peak effect at 100 mg/kg, ip by 6 Hz psychomotor seizure test; format: functional; conditions: route intraperitoneal
[3] = system: Mus musculus; test: Neurotoxicity in CF1 albino mouse seizure model assessed as time to peak toxic effect at 100 mg/kg, ip after 4 hr by rototod test; format: toxicity, organism-based; design: dose 100 mg/kg, route intraperitoneal; conditions: in vivo
[4] = system: Mus musculus; test: Neurotoxicity in CF1 albino mouse seizure model at 100 mg/kg, ip after 0.5 hrs by rototod test; format: toxicity, organism-based; design: dose 100 mg/kg, route intraperitoneal; conditions: in vivo
[5] = system: Mus musculus; test: Neurotoxicity in CF1 albino mouse seizure model at 100 mg/kg, ip after 2 hrs by rototod test; format: toxicity, organism-based; design: dose 100 mg/kg, route intraperitoneal; conditions: in vivo
[6] = system: Mus musculus; test: Anticonvulsant activity in CF1 albino mouse assessed as protection against Li-pilocarpine-induced seizure at 65 mg/kg, ip; format: functional, organism-based; design: dose 65 mg/kg
[7] = system: Mus musculus; test: Neurotoxicity in CF1 albino mouse seizure model at 100 mg/kg, ip after 1 hrs by rototod test; format: toxicity, organism-based; design: dose 100 mg/kg, route intraperitoneal; conditions: in vivo
[8] = Protective index, ratio of TD50 for CF1 albino mouse neurotoxicity to ED50 for protection against 6 Hz electroshock-induced seizure in CF1 albino mouse; format: toxicity, organism-based; conditions: in vivo, read-out: Ratio TD50/ED50
[9] = system: Mus musculus; test: Neurotoxicity in CF1 albino mouse seizure model at 100 mg/kg, ip after 4 hrs by rototod test; format: toxicity, organism-based; design: dose 100 mg/kg, route intraperitoneal; conditions: in vivo
[10] = system: Mus musculus; test: Anticonvulsant activity in CF1 albino mouse assessed as protection against maximal electroshock-induced seizures at 100 mg/kg, ip after 1 hrs; format: functional, organism-based; design: dose 100 mg/kg
[11] = Neurotoxicity in ip dosed CF1 albino mouse seizure model after 4 hr by rototod test; format: toxicity, organism-based; conditions: in vivo
[12] = system: Mus musculus; test: Anticonvulsant activity against CF1 albino mouse seizure model assessed as protection at 100 mg/kg, ip after 0.25 hrs by 6 Hz psychomotor seizure test; format: functional, organism-based; design: dose 100 mg/kg
[13] = system: Mus musculus; test: Neurotoxicity in CF1 albino mouse seizure model at 100 mg/kg, ip after 0.25 hrs by rototod test; format: toxicity, organism-based; design: dose 100 mg/kg, route intraperitoneal; conditions: in vivo
[14] = system: Mus musculus; test: Anticonvulsant activity against CF1 albino mouse seizure model assessed as protection at 100 mg/kg, ip after 4 hrs by 6 Hz psychomotor seizure test; format: functional, organism-based; design: dose 100 mg/kg
[15] = system: Mus musculus; test: Anticonvulsant activity in CF1 albino mouse assessed as protection against maximal electroshock-induced seizures at 100 mg/kg, ip after 0.25 hrs; format: functional, organism-based; design: dose 100 mg/kg
[16] = system: Mus musculus; test: Anticonvulsant activity in CF1 albino mouse assessed as protection against maximal electroshock-induced seizures at 100 mg/kg, ip after 0.5 hrs; format: functional, organism-based; design: dose 100 mg/kg
[17] = system: Mus musculus; test: Anticonvulsant activity in CF1 albino mouse assessed as protection against pentylenetetrazole-induced seizure at 100 mg/kg, ip after 2 hrs by scMET test; format: functional, organism-based; design: dose 100 mg/kg
[18] = system: Mus musculus; test: Anticonvulsant activity in CF1 albino mouse assessed as protection against pentylenetetrazole-induced seizure at 100 mg/kg, ip after 4 hrs by scMET test; format: functional, organism-based; design: dose 100 mg/kg
[19] = system: Mus musculus; test: Reduction Li-pilocarpine-induced weight loss in non-protected CF1 albino mouse at 65 mg/kg, ip after 0.5 hrs; format: functional, organism-based; design: dose 65 mg/kg
[20] = system: Mus musculus; test: Reduction Li-pilocarpine-induced weight loss in protected CF1 albino mouse at 65 mg/kg, ip after 0.5 hrs; format: functional, organism-based; design: dose 65 mg/kg
[21] = system: Mus musculus; test: Anticonvulsant activity in CF1 albino mouse assessed as protection against maximal electroshock-induced seizures at 100 mg/kg, ip after 2 hrs; format: functional, organism-based; design: dose 100 mg/kg
[22] = system: Mus musculus; test: Anticonvulsant activity in CF1 albino mouse assessed as protection against pentylenetetrazole-induced seizure at 100 mg/kg, ip after 0.25 hrs by scMET test; format: functional, organism-based; design: dose 100 mg/kg
[23] = system: Mus musculus; test: Anticonvulsant activity against CF1 albino mouse seizure model assessed as protection at 100 mg/kg, ip after 0.5 hrs by 6 Hz psychomotor seizure test; format: functional, organism-based; design: dose 100 mg/kg
[24] = system: Mus musculus; test: Anticonvulsant activity against CF1 albino mouse seizure model assessed as protection at 100 mg/kg, ip after 1 hrs by 6 Hz psychomotor seizure test; format: functional, organism-based; design: dose 100 mg/kg
[25] = system: Mus musculus; test: Anticonvulsant activity in CF1 albino mouse assessed as protection against pentylenetetrazole-induced seizure at 100 mg/kg, ip after 1 hrs by scMET test; format: functional, organism-based; design: dose 100 mg/kg
[26] = system: Mus musculus; test: Anticonvulsant activity in CF1 albino mouse assessed as protection against maximal electroshock-induced seizures at 100 mg/kg, ip after 4 hrs; format: functional
[27] = system: Mus musculus; test: Anticonvulsant activity in CF1 albino mouse assessed as protection against pentylenetetrazole-induced seizure at 200 mg/kg, ip after 4 hrs by scMET test; format: functional; conditions: route intraperitoneal
[28] = system: Mus musculus; test: Anticonvulsant activity in CF1 albino mouse assessed as protection against pentylenetetrazole-induced seizure at 100 mg/kg, ip after 0.5 hrs by scMET test; format: functional, organism-based; design: dose 100 mg/kg

SMILES | ED50 [1] | Time [2] | Activity [4] | Activity [5] | Activity [7] | selectivity ratio [8] | Activity [9] | Activity [10] | TD50 at 4 h [11] | Activity [13] | Time [3] | Activity [15] | Activity [16] | Activity [17] | further results
Cc1ccc(C(C)C)cc1 [P-CYMENE] | 51.3 mg/kg | 0.25 h | – | – | – | – | – | – | – | – | – | – | – | – | Activity [3]: ND(toxic)
Cc1ccc(C(C)C)c(O)c1 [THYMOL] | 35.8 mg/kg | 0.25 h | Non-toxic | Non-toxic | Non-toxic | 3.4 | Non-toxic | inactive | 121 mg/kg | Non-toxic | 0.25 h | – | – | – | Activity [6]: inactive; Activity [12]: Active; Activity [14]: inactive
CC(C)c1ccccc1O | 49.9 mg/kg | 0.25 h | – | Non-toxic | Non-toxic | 2.8 | Non-toxic | inactive | 142 mg/kg | – | 4 h | inactive | inactive | inactive | Activity [18]: inactive; inhibition [19]: inactive; inhibition [20]: inactive; Activity [21]: inactive
NC(=O)N1c2ccccc2C=Cc2ccccc21 [CARBAMAZEPINE] | 47.9 mg/kg | – | – | – | – | – | – | – | – | – | – | – | – | – | –
CC(C)c1cccc(O)c1 | 53.8 mg/kg | 0.25 h | Non-toxic | – | – | 2.4 | Non-toxic | – | 129 mg/kg | Non-toxic | 4 h | inactive | inactive | inactive | Activity [22]: inactive; Activity [23]: inactive; Activity [18]: inactive; Activity [24]: Active; Activity [25]: inactive
CN1C(=O)OC(C)(C)C1=O [TRIMETHADIONE] | 218 mg/kg | – | – | – | – | 3.8 | – | – | – | – | – | – | – | – | –
Cc1ccc(C(C)C)cc1O [CARVACROL] | 35.8 mg/kg | 0.25 h | Non-toxic | Non-toxic | Non-toxic | 5.3 | Non-toxic | inactive | 191 mg/kg | Non-toxic | 6 h | inactive | inactive | inactive | Activity [26]: inactive; inhibition in vivo at 100 mg/kg ([26]; route intraperitoneal): 20%; inhibition in vivo at 200 mg/kg [27]: 40%; Activity [22]: inactive; Activity [28]: inactive; Activity [6]: inactive; Activity [23]: inactive; Activity [21]: inactive; Activity [12]: inactive
CC(C)c1cccc(C(C)C)c1O [PROPOFOL] | 32.8 mg/kg | – | – | – | – | 1.1 | – | – | – | – | – | – | – | – | –
